{
  "source": "PubChem BioAssay (NCI)",
  "test_in_all_cases": "NCI tumour cell line growth inhibition, 48 h",
  "key": {"NCI-H226 lung": {"system": "NCI-H226 lung"}, "NCI-H23 lung": {"system": "NCI-H23 lung"}, "NCI-H460 lung": {"system": "NCI-H460 lung"}, "NCI-H522 lung": {"system": "NCI-H522 lung"}, "OVCAR-3 ovarian": {"system": "OVCAR-3 ovarian"}, "OVCAR-4 ovarian": {"system": "OVCAR-4 ovarian"}, "OVCAR-5 ovarian": {"system": "OVCAR-5 ovarian"}, "OVCAR-8 ovarian": {"system": "OVCAR-8 ovarian"}, "PC-3 prostate": {"system": "PC-3 prostate"}, "RPMI-8226 leukemia": {"system": "RPMI-8226 leukemia"}, "RXF 393 renal": {"system": "RXF 393 renal"}, "SF-268 CNS": {"system": "SF-268 CNS"}, "SF-295 CNS": {"system": "SF-295 CNS"}, "SF-539 CNS": {"system": "SF-539 CNS"}, "SK-MEL-2 melanoma": {"system": "SK-MEL-2 melanoma"}, "SK-MEL-28 melanoma": {"system": "SK-MEL-28 melanoma"}, "SK-MEL-5 melanoma": {"system": "SK-MEL-5 melanoma"}, "SK-OV-3 ovarian": {"system": "SK-OV-3 ovarian"}, "SN12C renal": {"system": "SN12C renal"}, "SNB-19 CNS": {"system": "SNB-19 CNS"}, "SNB-75 CNS": {"system": "SNB-75 CNS"}, "SR leukemia": {"system": "SR leukemia"}, "SW-620 colon": {"system": "SW-620 colon"}, "T-47D breast": {"system": "T-47D breast"}, "TK-10 renal": {"system": "TK-10 renal"}, "U251 CNS": {"system": "U251 CNS"}, "UACC-257 melanoma": {"system": "UACC-257 melanoma"}, "UACC-62 melanoma": {"system": "UACC-62 melanoma"}, "UO-31 renal": {"system": "UO-31 renal"}},
  "note": "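Test compounds were applied to cells in 96-well plates for 48 hours at 5 doses. GI50 marks 50% less growth. TGI denotes the concentration required for complete inhibition of growth.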",
  "data": [
    {"compound": "O=C(c1ccc(O)cc1)C1[C@H](c2ccc(Br)cc2)[C@@H](c2ccccc2)NC12C(=O)Nc1ccccc12", "note": "(stereo partly drawn)", "values": [
      {"measurement": "GI50", "setting": "NCI-H226 lung", "value": 5.31, "unit": "µM"},
      {"measurement": "TGI", "setting": "NCI-H226 lung", "value": 11, "unit": "µM"},
      {"measurement": "GI50", "setting": "NCI-H23 lung", "value": 6.38, "unit": "µM"},
      {"measurement": "TGI", "setting": "NCI-H23 lung", "value": 12.6, "unit": "µM"},
      {"measurement": "GI50", "setting": "NCI-H460 lung", "value": 6.08, "unit": "µM"},
      {"measurement": "TGI", "setting": "NCI-H460 lung", "value": 11.9, "unit": "µM"},
      {"measurement": "GI50", "setting": "NCI-H522 lung", "value": 5.82, "unit": "µM"},
      {"measurement": "TGI", "setting": "NCI-H522 lung", "value": 11.7, "unit": "µM"},
      {"measurement": "GI50", "setting": "OVCAR-3 ovarian", "value": 6.51, "unit": "µM"},
      {"measurement": "TGI", "setting": "OVCAR-3 ovarian", "value": 12, "unit": "µM"},
      {"measurement": "GI50", "setting": "OVCAR-4 ovarian", "value": 6.21, "unit": "µM"},
      {"measurement": "TGI", "setting": "OVCAR-4 ovarian", "value": 12.9, "unit": "µM"},
      {"measurement": "GI50", "setting": "OVCAR-5 ovarian", "value": 5.67, "unit": "µM"},
      {"measurement": "TGI", "setting": "OVCAR-5 ovarian", "value": 10.8, "unit": "µM"},
      {"measurement": "GI50", "setting": "OVCAR-8 ovarian", "value": 6.28, "unit": "µM"},
      {"measurement": "TGI", "setting": "OVCAR-8 ovarian", "value": 12.2, "unit": "µM"},
      {"measurement": "GI50", "setting": "PC-3 prostate", "value": 5.09, "unit": "µM"},
      {"measurement": "TGI", "setting": "PC-3 prostate", "value": 12.3, "unit": "µM"},
      {"measurement": "GI50", "setting": "RPMI-8226 leukemia", "value": 7.97, "unit": "µM"},
      {"measurement": "TGI", "setting": "RPMI-8226 leukemia", "value": 25.2, "unit": "µM"},
      {"measurement": "GI50", "setting": "RXF 393 renal", "value": 5.29, "unit": "µM"},
      {"measurement": "TGI", "setting": "RXF 393 renal", "value": 10.5, "unit": "µM"},
      {"measurement": "GI50", "setting": "SF-268 CNS", "value": 5.73, "unit": "µM"},
      {"measurement": "TGI", "setting": "SF-268 CNS", "value": 12.5, "unit": "µM"},
      {"measurement": "GI50", "setting": "SF-295 CNS", "value": 5.93, "unit": "µM"},
      {"measurement": "TGI", "setting": "SF-295 CNS", "value": 11.3, "unit": "µM"},
      {"measurement": "GI50", "setting": "SF-539 CNS", "value": 6.41, "unit": "µM"},
      {"measurement": "TGI", "setting": "SF-539 CNS", "value": 11.7, "unit": "µM"},
      {"measurement": "GI50", "setting": "SK-MEL-2 melanoma", "value": 6.14, "unit": "µM"},
      {"measurement": "TGI", "setting": "SK-MEL-2 melanoma", "value": 11.5, "unit": "µM"},
      {"measurement": "GI50", "setting": "SK-MEL-28 melanoma", "value": 6.21, "unit": "µM"},
      {"measurement": "TGI", "setting": "SK-MEL-28 melanoma", "value": 11.5, "unit": "µM"},
      {"measurement": "GI50", "setting": "SK-MEL-5 melanoma", "value": 6.6, "unit": "µM"},
      {"measurement": "TGI", "setting": "SK-MEL-5 melanoma", "value": 12.1, "unit": "µM"},
      {"measurement": "GI50", "setting": "SK-OV-3 ovarian", "value": 6.67, "unit": "µM"},
      {"measurement": "TGI", "setting": "SK-OV-3 ovarian", "value": 13.3, "unit": "µM"},
      {"measurement": "GI50", "setting": "SN12C renal", "value": 5.69, "unit": "µM"},
      {"measurement": "TGI", "setting": "SN12C renal", "value": 10.8, "unit": "µM"},
      {"measurement": "GI50", "setting": "SNB-19 CNS", "value": 5.92, "unit": "µM"},
      {"measurement": "TGI", "setting": "SNB-19 CNS", "value": 11.1, "unit": "µM"},
      {"measurement": "GI50", "setting": "SNB-75 CNS", "value": 4.21, "unit": "µM"},
      {"measurement": "TGI", "setting": "SNB-75 CNS", "value": 11.7, "unit": "µM"},
      {"measurement": "GI50", "setting": "SR leukemia", "value": 5.18, "unit": "µM"},
      {"measurement": "TGI", "setting": "SR leukemia", "value": 12.6, "unit": "µM"},
      {"measurement": "GI50", "setting": "SW-620 colon", "value": 6.63, "unit": "µM"},
      {"measurement": "TGI", "setting": "SW-620 colon", "value": 12.9, "unit": "µM"},
      {"measurement": "GI50", "setting": "T-47D breast", "value": 5.14, "unit": "µM"},
      {"measurement": "TGI", "setting": "T-47D breast", "value": 12.2, "unit": "µM"},
      {"measurement": "GI50", "setting": "TK-10 renal", "value": 5.68, "unit": "µM"},
      {"measurement": "TGI", "setting": "TK-10 renal", "value": 11.3, "unit": "µM"},
      {"measurement": "GI50", "setting": "U251 CNS", "value": 6.19, "unit": "µM"},
      {"measurement": "TGI", "setting": "U251 CNS", "value": 11.6, "unit": "µM"},
      {"measurement": "GI50", "setting": "UACC-257 melanoma", "value": 6.1, "unit": "µM"},
      {"measurement": "TGI", "setting": "UACC-257 melanoma", "value": 11.8, "unit": "µM"},
      {"measurement": "GI50", "setting": "UACC-62 melanoma", "value": 5.13, "unit": "µM"},
      {"measurement": "TGI", "setting": "UACC-62 melanoma", "value": 10.1, "unit": "µM"},
      {"measurement": "GI50", "setting": "UO-31 renal", "value": 3.99, "unit": "µM"},
      {"measurement": "TGI", "setting": "UO-31 renal", "value": 8.53, "unit": "µM"}
    ]}
  ]
}
